# Source: patent publication US20240417359A1, “PRECURSORS OF PHENOLIC FRAGRANT COMPOUNDS” (GIVAUDAN SA, priority 2021, published 2024)
# Key:
# [1] = Washtest with liquid detergent and sensory evaluation of fabric by expert panel; details: Table 3; for odour intensity, 1 day: dry fabric 1 day; for odour intensity, 1 day / odour intensity, 4 days / odour intensity, wet: scale 0 to 5; for odour intensity, 4 days: dry fabric 4 days; for odour intensity, wet / odour on dry fabric: heavy duty liquid detergent washtest; for odour intensity, wet: wet fabric
# Procedure: The wet and line-dried fabric (1 and 4 days) was assessed by a panel of 4-6 experts with regard to odour intensity and quality. The odour intensity was recorded on an intensity scale of 0 (odourless) to 5 (extremely strong).
# The odour intensity was recorded on an intensity scale of 0 (odorless) to 5 (extremely strong).
# Heavy duty liquid detergent samples were prepared and used in washtests and subsequent sensory evaluation of the washed and dried fabric as described in Example 60a and c. The odour intensity was recorded on an intensity scale of 0 (odourless) to 5 (extremely strong).
# [2] = Biodegradability, manometric respirometry test (OECD 301F); details: pass level 60% oxygen consumption of theory
# Source text: The results of the biodegradability assessment by the manometric respirometry test (OECD guideline for the testing of materials No. 301F, Paris 1992) are summarized in Table 6.
# A compound can be classified biodegradable, if it reaches the pass level of 60% oxygen consumption of theory required for complete mineralization.
# It is readily biodegradable, if the pass level is reached within 10 days within the 28-day period of the test. The 10-day window begins when the degree of biodegradation has reached 10%. If the pass level is obtained after 28-day period of the test, the compound can be classified as inherently biodegradable.
# [3] = Odour description on paper blotter; details: 1% solution in EtOH on paper blotter, 24 h
# [4] = Application in shampoo base: sensory evaluation of washed hair swatches by expert panel; design: species or system human; details: Table 4; for odour intensity, wet: wet hair swatch, scale 0 (odourless) to 5 (extremely strong); for odour intensity, 1 day: dried hair swatch 1 day; for odour intensity, 1 day / odour intensity, 3 days: scale 0 to 5; for odour intensity, 3 days: dried hair swatch 3 days
# Procedure: Odour-neutral human hair swatches were wetted with warm tap water and lathered delicately with 2 mL of the above hair shampoo samples for 30 sec by hand wearing gloves. The lathered hair swatches were left in a plastic bowl for 2 min, then rinsed under running tap water for 20 sec. After removing excess water by squeezing the hair swatches between two fingers, they were left to dry in open air. The wet and dried hair swatches (1 and 3 days) were assessed by a panel of 4-6 experts with regard to odour intensity and quality. The odour intensity was recorded on an intensity scale of 0 (odourless) to 5 (extremely strong).
compound,measurement,setting,value
C=CCc1ccc(OC(CC=C)CCCCCCCCC)c(OC)c1 (centres unmarked) [4-allyl-2-methoxy-1-(tridec-1-en-4-yloxy)benzene],"odour intensity, 1 day",[1],2.1
same,"odour intensity, 4 days",[1],2.7
same,"odour intensity, wet",[1],2.1
"CCCCCC[C@@H](C/C=C\CCCCCCCC(=O)OC)Oc1ccc(C=O)cc1OCC [Example 1, methyl (S,Z)-12-(2-ethoxy-4-formylphenoxy)octadec-9-enoate]",Biodegradation in %,[2],90%
same,Odour description,[3],"powdery, vanillin, green, fatty"
"C=CCC(CC/C=C\CC)Oc1ccc(C=O)cc1OCC (centres unmarked) [Example 12, (Z)-4-(deca-1,7-dien-4-yloxy)-3-ethoxybenzaldehyde]","odour intensity, 1 day",[1],3.0
same,"odour intensity, 4 days",[1],3.7
same,"odour intensity, wet",[1],0.4
same,Odour description,[3],powdery (vanilla)
"C=CCC(CCCCCCCCC)Oc1ccc(CCC(C)=O)cc1 (centres unmarked) [Example 36, 4-(4-(tridec-1-en-4-yloxy)phenyl)butan-2-one]",Odour description,[3],"fruity, juicy, raspberry, aldehydic, green, metallic"
same,"odour intensity, wet",[4]; 0.2% by weight in shampoo base,2.3
same,"odour intensity, 1 day",[4],1.9
same,"odour intensity, 3 days",[4],1.6
"C=CCC(CCCCCCCCCC)Oc1ccc(C=O)cc1OC (centres unmarked) [Example 38, 3-methoxy-4-(tetradec-1-en-4-yloxy)benzaldehyde]","odour intensity, 1 day",[1],3.0
same,"odour intensity, 4 days",[1],3.2
same,odour on dry fabric,[1],madeleine
same,"odour intensity, wet",[1],2.2
same,Odour description,[3],"powdery, vanilla, creamy, aldehydic, mandarin, madeleine"
"CCCCCC(C)=CCCOc1ccc(C=O)cc1OCC [Example 42, 3-ethoxy-4-((4-methylnon-3-en-1-yl)oxy)benzaldehyde]","odour intensity, 1 day",[1],2.8
same,"odour intensity, 4 days",[1],3.3
same,"odour intensity, wet",[1],2.1
same,Odour description,[3],"powdery, vanilla, sweet, sugary"
same,odour on dry hair,[4]; 0.2% by weight in shampoo base,"vanilla, sweet"
same,"odour intensity, wet",[4]; 0.2% by weight in shampoo base,1.0
same,"odour intensity, 1 day",[4],1.4
same,"odour intensity, 3 days",[4],1.9
"CCOc1cc(C=O)ccc1OCCC=C(C)CCc1ccccc1 [Example 47, 3-ethoxy-4-((4-methyl-6-phenylhex-3-en-1-yl)oxy)benzaldehyde]","odour intensity, 1 day",[1],2.7
same,"odour intensity, 4 days",[1],3.0
same,"odour intensity, wet",[1],1.5
same,Odour description,[3],"sweet, vanilla, ice cream, powdery, fruity, raspberry, sorbet"
same,"odour intensity, wet",[4]; 0.2% by weight in shampoo base,1.4
same,"odour intensity, 1 day",[4],2.7
same,"odour intensity, 3 days",[4],2.1
"CC(=O)CCc1ccc(OCCC=C(C)CCc2ccccc2)cc1 [Example 52, 4-(4-((4-methyl-6-phenylhex-3-en-1-yl)oxy)phenyl)butan-2-one]","odour intensity, 1 day",[1],2.9
same,"odour intensity, 4 days",[1],3.3
same,odour on dry fabric,[1],"raspberry, sweet"
same,"odour intensity, wet",[1],1.6
same,Odour description,[3],"sweet, crystal sugar, fruity, raspberry"
"COc1ccc(CCC(C)=CCCOc2ccc(CCC(C)=O)cc2)cc1 [Example 55, 4-(4-((6-(4-methoxyphenyl)-4-methylhex-3-en-1-yl)oxy)phenyl)butan-2-one]",Odour description,[3],"sweet, fruity, raspberry"
same,"odour intensity, wet",[4]; 0.2% by weight in shampoo base,1.1
same,"odour intensity, 1 day",[4],2.8
same,"odour intensity, 3 days",[4],3.0
"CCOc1cc(C=O)ccc1OCCC=C(C)CCC=C(C)C [Example 60, 4-((4,8-dimethylnona-3,7-dien-1-yl)oxy)-3-ethoxybenzaldehyde]",Odour description,[3],"gourmand (vanilla, rhum, vanilla bean) sweet (vanilla)"
"C=CCc1ccc(OCCC=C(C)CCC=C(C)C)c(OC)c1 [Example 61, 4-allyl-1-((4,8-dimethylnona-3,7-dien-1-yl)oxy)-2-methoxybenzene]",Odour description,[3],spicy
"COC(=O)c1c(C)cc(OCC/C=C(\C)CCC=C(C)C)c(C)c1O [Example 62, methyl (E)-4-((4,8-dimethylnona-3,7-dien-1-yl)oxy)-2-hydroxy-3,6-dimethylbenzoate]",Odour description,[3],powdery (mossy)
"CCOc1cc(C=O)ccc1OC(C)C(C)/C=C/C1CC=C(C)C1(C)C (centres unmarked) [Example 63, (E)-3-ethoxy-4-((3-methyl-5-(2,2,3-trimethylcyclopent-3-en-1-yl)pent-4-en-2-yl)oxy)benzaldehyde]",Odour description,[3],"woody, sandalwoody, hay"
"CCCCC/C=C\CCOc1ccc(C=O)cc1OCC [Example 64, (Z)-3-ethoxy-4-(non-3-en-1-yloxy)benzaldehyde]",Odour description,[3],"vanilla (powdery, spicy, creamy)"
"CCOc1cc(C)ccc1OCCC=C(C)CCC=C(C)CCC=C(C)C [Example 65, 2-ethoxy-4-methyl-1-((4,8,12-trimethyltrideca-3,7,11-trien-1-yl)oxy)benzene]",Odour description,[3],"phenolic (medicinal, ultravanil, balsamic vanilla bean, cough syrup)"
"COC(=O)c1c(C)cc(OCCC=C(C)CCC=C(C)CCC=C(C)C)c(C)c1O [Example 66, methyl 2-hydroxy-3,6-dimethyl-4-((4,8,12-trimethyltrideca-3,7,11-trien-1-yl)oxy)benzoate]",Odour description,[3],powdery mossy (evernyl)
"C=CCC(Oc1ccc(C=O)cc1OCC)c1ccccc1 (centres unmarked) [Example 68, 3-ethoxy-4-((1-phenylbut-3-en-1-yl)oxy)benzaldehyde]",Odour description,[3],"powdery (vanilla), green"
"C=CCC(CC/C=C\CC)Oc1cc(C)c(C(=O)OC)c(O)c1C (centres unmarked) [Example 69, methyl (Z)-4-(deca-1,7-dien-4-yloxy)-2-hydroxy-3,6-dimethylbenzoate]","odour intensity, 1 day",[1],1.9
same,"odour intensity, 4 days",[1],2.5
same,odour on dry fabric,[1],"mossy, woody"
same,"odour intensity, wet",[1],0.5
same,Odour description,[3],powdery green marine (evernyl)
"CC/C=C\CCCC/C=C/CCOc1ccc(C=O)cc1OCC [Example 76, 4-(((3E,9Z)-dodeca-3,9-dien-1-yl)oxy)-3-ethoxybenzaldehyde]",Odour description,[3],"green, melon, powdery, vanilla"
"CC/C=C\CCCC/C=C/CCOc1cc(C)c(C(=O)OC)c(O)c1C [Example 77, methyl 4-(((3E,9Z)-dodeca-3,9-dien-1-yl)oxy)-2-hydroxy-3,6-dimethylbenzoate]",Odour description,[3],"powdery, oakmoss"
"C=CCC(CCC=CCC)Oc1ccc(C=O)cc1OCC (centres unmarked) [Example 78, 4-(deca-1,7-dien-4-yloxy)-3-ethoxybenzaldehyde]",Odour description,[3],"powdery, vanilla"
"CCOc1cc(C=O)ccc1OCCC=C(C)CCc1ccc2c(c1)OCO2 [Example 79, 4-((6-(benzo[d][1,3]dioxol-5-yl)-4-methylhex-3-en-1-yl)oxy)-3-ethoxybenzaldehyde]",Odour description,[3],"sweet powdery, creamy, vanilla, vanitrope"
"CC(=O)CCc1ccc(OCCC=C(C)CCc2ccc3c(c2)OCO3)cc1 [Example 80, 4-(4-((6-(benzo[d][1,3]dioxol-5-yl)-4-methylhex-3-en-1-yl)oxy)phenyl)butan-2-one]",Odour description,[3],"fruity, raspberry, grenadine, berryflor, fresh, transparent"
"CC(=O)CCc1ccc(OCCC=C(C)CCC2=C(C)CCCC2(C)C)cc1 [Example 82, 4-(4-((4-methyl-6-(2,6,6-trimethylcyclohex-1-en-1-yl)hex-3-en-1-yl)oxy)phenyl)butan-2-one]",Odour description,[3],"fruity, sweet, powdery, raspberry ketone"
"CCOc1cc(C=O)ccc1OCCC=CC(C)CCC=C(C)C (centres unmarked) [Example 84, 4-((5,9-dimethyldeca-3,8-dien-1-yl)oxy)-3-ethoxybenzaldehyde]",Odour description,[3],"powdery, vanilla, chocolate milk, slightly fresh, fatty, watery, melon"
same,"odour intensity, wet",[4]; 0.2% by weight in shampoo base,0.7
same,"odour intensity, 1 day",[4],2.7
same,"odour intensity, 3 days",[4],3.6
"CCOc1cc(C=O)ccc1OCCC=CCCc1ccccc1 [Example 85, 3-ethoxy-4-((6-phenylhex-3-en-1-yl)oxy)benzaldehyde]",Odour description,[3],"powdery, vanilla, creamy, balsamic, cinnamic"
"CCOc1cc(C=O)ccc1OCCC=CCCc1ccc(CC(C)C)cc1 [Example 86, 3-ethoxy-4-((6-(4-isobutylphenyl)hex-3-en-1-yl)oxy)benzaldehyde]",Odour description,[3],"powdery, vanilla, creamy, floral, muguet"
"CCOc1cc(C=O)ccc1OCCC=C(C)C1CCCC1 [Example 88, 4-((4-cyclopentylpent-3-en-1-yl)oxy)-3-ethoxybenzaldehyde]",Odour description,[3],"powdery, creamy, vanilla"
"CCCCCCC(C)=CCCOc1ccc(C=O)cc1OCC [Example 89, 3-ethoxy-4-((4-methyldec-3-en-1-yl)oxy)benzaldehyde]",Odour description,[3],"powdery, vanilla, creamy"
"CCCCCCCCC(C)=CCCOc1ccc(C=O)cc1OCC [Example 90, 3-ethoxy-4-((4-methyldodec-3-en-1-yl)oxy)benzaldehyde]",Odour description,[3],"powdery, vanilla, creamy, slightly green, sesame seed, sharp, technical"
same,"odour intensity, wet",[4]; 0.2% by weight in shampoo base,1.1
same,"odour intensity, 1 day",[4],2.7
same,"odour intensity, 3 days",[4],2.9
"C=CCC(CCCCCCCCC)Oc1ccc(C=O)cc1OCC (centres unmarked) [Example 91, 3-ethoxy-4-(tridec-1-en-4-yloxy)benzaldehyde]",Odour description,[3],"powdery, vanilla, aldehydic, fruity, mandarin"
